Measurements as given in patent US20210395262A1, “INHIBITORS OF HUMAN IMMUNODEFICIENCY VIRUS REPLICATION” (ViiV HEALTHCARE UK (NO.5) LIMITED, priority 2018, published 2021).

Assays:
recombinant NL4-3 virus = assay: HIV cell culture assay (antiviral activity, luciferase readout in MT-2 cells); type: cell-based; details: Human immunodeficiency virus 1, NL43, MT2
Protocol: HIV cell culture assay—MT-2 cells, 293T cells and the proviral DNA clone of NL4-3 virus were obtained from the […] AIDS Research and Reference Reagent Program. MT-2 cells were propagated in RPMI 1640 media supplemented with 10% heat inactivated fetal bovine serum (FBS), […] penicillin G and up to 100 units/mL streptomycin. The 293T cells were propagated in DMEM media supplemented with 10% heat inactivated FBS, […] penicillin G and […] streptomycin. A recombinant NL4-3 proviral clone, in which a section of the nef gene was replaced with the Renilla luciferase gene, was used to make the reference virus used in these studies. The recombinant virus was prepared through transfection of the recombinant NL4-3 proviral clone into 293T cells using Transit-293 Transfection Reagent from Mirus Bio LLC (Madison, Wis.). Supernatent was harvested after 2-3 days and the amount of virus present was titered in MT-2 cells using luciferase enzyme activity as a marker by measuring luciferase enzyme activity. Luciferase was quantitated using the EnduRen Live Cell Substrate from Promega (Madison, Wis.). Antiviral activities of compounds toward the recombinant virus were quantified by measuring luciferase activity in MT-2 cells infected for 4-5 days with the recombinant virus in the presence of serial dilutions of the compound.
The 50% effective concentration (EC50) was calculated by using the exponential form of the median effect equation where (Fa)=1/[1+(ED50/drug conc.)m] (Johnson V A, Byington R T. Infectivity Assay. In Techniques in HIV Research. ed. Aldovini A, Walker B D. 71-76. New York: Stockton Press. 1990). The 50% inhibitory concentration (EC50) was calculated by using the exponential form of the median effect equation where percent inhibition=1/[1+(EC50/drug concentration)m], where m is a parameter that reflects the slope of the concentration-response curve.

[1] = Compound cytotoxicity, XTT-based colorimetric assay; type: cell-based; details: human; uninfected MT2 cells, day 4, XTT; read-out: CC50
Protocol: Compound cytotoxicity and the corresponding CC50 values were determined using the same protocol as described in the antiviral assay except that uninfected cells were used. Cytotoxicity was assessed on day 4 in uninfected MT2 cells by using a XTT (2,3-bis[2-Methoxy-4-nitro-5-sulfophenyl]-2H-tetrazolium-5-carboxyanilide inner salt)-based colorimetric assay (Sigma-Aldrich, St Louis, Mo.).

Row | SMILES | EC50 (recombinant NL4-3 virus) | CC50 at 4 days [1]
1 | COC1CCN(c2ccc3c(=O)n(-c4ccc(Cl)c5c(NS(C)(=O)=O)nn(C)c45)c([C@H](Cc4cc(F)cc(F)c4)NC(=O)Cn4nc(C(F)F)c5c4C(F)(F)[C@@H]4C[C@H]54)nc3c2)CC1 (atropisomer, axis not shown; (P)) [Example 28, N—((S)-1-((3P)-3-(4-chloro-1-methyl-3-(methylsulfonamido)-1H-indazol-7-yl)-7-(4-methoxypiperidin-1-yl)-4-oxo-3,4-dihydroquinazolin-2-yl)-2-(3,5-difluorophenyl)ethyl)-2-((3bS,4aR)-3-(difluoromethyl)-5,5-difluoro-3b,4,4a,5-tetrahydro-1H-cyclopropa[3,4]cyclopenta[1,2-c]pyrazol-1-yl)acetamide] | 0.12 nM | > 500 nM
2 | Cn1nc(NS(C)(=O)=O)c2c(Cl)ccc(-n3c([C@H](Cc4cc(F)cc(F)c4)NC(=O)Cn4nc(C(F)F)c5c4C(F)(F)[C@@H]4C[C@H]54)nc4cc(N5CCC(S(C)(=O)=O)CC5)ccc4c3=O)c21 (atropisomer, axis not shown; (P)) [Example 30, N—((S)-1-((3P)-3-(4-chloro-1-methyl-3-(methylsulfonamido)-1H-indazol-7-yl)-7-(4-(methylsulfonyl)piperidin-1-yl)-4-oxo-3,4-dihydroquinazolin-2-yl)-2-(3,5-difluorophenyl)ethyl)-2-((3bS,4aR)-3-(difluoromethyl)-5,5-difluoro-3b,4,4a,5-tetrahydro-1H-cyclopropa[3,4]cyclopenta[1,2-c]pyrazol-1-yl)acetamide] | 0.381 nM | > 500 nM
3 | Cn1nc(NS(C)(=O)=O)c2c(Cl)ccc(-n3c([C@H](Cc4cc(F)cc(F)c4)NC(=O)Cn4nc(C(F)F)c5c4C(F)(F)[C@@H]4C[C@H]54)nc4cc(N5CC=CC5)ccc4c3=O)c21 (atropisomer, axis not shown; (P)) [Example 31, N—((S)-1-((3P)-3-(4-chloro-1-methyl-3-(methylsulfonamido)-1H-indazol-7-yl)-7-(2,5-dihydro-1H-pyrrol-1-yl)-4-oxo-3,4-dihydroquinazolin-2-yl)-2-(3,5-difluorophenyl)ethyl)-2-((3bS,4aR)-3-(difluoromethyl)-5,5-difluoro-3b,4,4a,5-tetrahydro-1H-cyclopropa[3,4]cyclopenta[1,2-c]pyrazol-1-yl)acetamide] | 0.127 nM | > 500 nM
4 | Cn1nc(NS(C)(=O)=O)c2c(Cl)ccc(-n3c([C@H](Cc4cc(F)cc(F)c4)NC(=O)Cn4nc(C(F)F)c5c4C(F)(F)[C@@H]4C[C@H]54)nc4cc(N5CCC6(CCC6)CC5)ccc4c3=O)c21 (atropisomer, axis not shown; (P)) [Example 34, N—((S)-1-((3P)-3-(4-chloro-1-methyl-3-(methylsulfonamido)-1H-indazol-7-yl)-4-oxo-7-(7-azaspiro[3.5]nonan-7-yl)-3,4-dihydroquinazolin-2-yl)-2-(3,5-difluorophenyl)ethyl)-2-((3bS,4aR)-3-(difluoromethyl)-5,5-difluoro-3b,4,4a,5-tetrahydro-1H-cyclopropa[3,4]cyclopenta[1,2-c]pyrazol-1-yl)acetamide] | 2.81 nM | > 1000 nM
5 | Cn1nc(NS(C)(=O)=O)c2c(Cl)ccc(-n3c([C@H](Cc4cc(F)cc(F)c4)NC(=O)Cn4nc(C(F)F)c5c4C(F)(F)[C@@H]4C[C@H]54)nc4cc(N5CCC[C@H]5CO)ccc4c3=O)c21 (atropisomer, axis not shown; (P)) [Example 35, N—((S)-1-((3P)-3-(4-chloro-1-methyl-3-(methylsulfonamido)-1H-indazol-7-yl)-7-((S)-2-(hydroxymethyl)pyrrolidin-1-yl)-4-oxo-3,4-dihydroquinazolin-2-yl)-2-(3,5-difluorophenyl)ethyl)-2-((3bS,4aR)-3-(difluoromethyl)-5,5-difluoro-3b,4,4a,5-tetrahydro-1H-cyclopropa[3,4]cyclopenta[1,2-c]pyrazol-1-yl)acetamide] | 0.272 nM | > 10000 nM
6 | O=C(Cn1nc(C(F)F)cc1C(F)F)N[C@@H](Cc1cc(F)cc(F)c1)c1nc2cc(N3CCOCC3)ccc2c(=O)n1-c1ccc(Cl)c2c(NS(=O)(=O)C3CC3)nn(CC(F)F)c12 (atropisomer, axis not shown; (P)) [Example 36, (S)-2-(3,5-bis(difluoromethyl)-1H-pyrazol-1-yl)-N-(1-((3P)-3-(4-chloro-3-(cyclopropanesulfonamido)-1-(2,2-difluoroethyl)-1H-indazol-7-yl)-7-morpholino-4-oxo-3,4-dihydroquinazolin-2-yl)-2-(3,5-difluorophenyl)ethyl)acetamide] | 2.31 nM | > 1000 nM
7 | O=C(Cn1nc(C(F)F)cc1C(F)F)N[C@@H](Cc1cc(F)cc(F)c1)c1nc2cc(N3CCCCC3)ccc2c(=O)n1-c1ccc(Cl)c2c(NS(=O)(=O)C3CC3)nn(CC(F)F)c12 (atropisomer, axis not shown; (P)) [Example 37, (S)-2-(3,5-bis(difluoromethyl)-1H-pyrazol-1-yl)-N-(1-((3P)-3-(4-chloro-3-(cyclopropanesulfonamido)-1-(2,2-difluoroethyl)-1H-indazol-7-yl)-4-oxo-7-(piperidin-1-yl)-3,4-dihydroquinazolin-2-yl)-2-(3,5-difluorophenyl)ethyl)acetamide] | 2.34 nM | > 1000 nM
8 | C[C@@H]1CN(c2ccc3c(=O)n(-c4ccc(Cl)c5c(NS(=O)(=O)C6CC6)nn(CC(F)F)c45)c([C@H](Cc4cc(F)cc(F)c4)NC(=O)Cn4nc(C(F)F)cc4C(F)F)nc3c2)C[C@H](C)O1 (atropisomer, axis not shown; (P)) [Example 38, 2-(3,5-bis(difluoromethyl)-1H-pyrazol-1-yl)-N—((S)-1-((3P)-3-(4-chloro-3-(cyclopropanesulfonamido)-1-(2,2-difluoroethyl)-1H-indazol-7-yl)-7-((2S,6R)-2,6-dimethylmorpholino)-4-oxo-3,4-dihydroquinazolin-2-yl)-2-(3,5-difluorophenyl)ethyl)acetamide] | 1.22 nM | > 1000 nM
9 | O=C(Cn1nc(C(F)F)cc1C1CC1)N[C@@H](Cc1cc(F)cc(F)c1)c1nc2cc(N3CCCCC3)ccc2c(=O)n1-c1ccc(Cl)c2c(NS(=O)(=O)C3CC3)nn(CC(F)F)c12 (atropisomer, axis not shown; (P)) [Example 39, (S)—N-(1-((3P)-3-(4-chloro-3-(cyclopropanesulfonamido)-1-(2,2-difluoroethyl)-1H-indazol-7-yl)-4-oxo-7-(piperidin-1-yl)-3,4-dihydroquinazolin-2-yl)-2-(3,5-difluorophenyl)ethyl)-2-(5-cyclopropyl-3-(difluoromethyl)-1H-pyrazol-1-yl)acetamide] | 3.72 nM | > 1000 nM
10 | O=C(Cn1nc(C(F)F)cc1C1CC1)N[C@@H](Cc1cc(F)cc(F)c1)c1nc2cc(N3CCOCC3)ccc2c(=O)n1-c1ccc(Cl)c2c(NS(=O)(=O)C3CC3)nn(CC(F)F)c12 (atropisomer, axis not shown; (P)) [Example 40, (S)—N-(1-((3P)-3-(4-chloro-3-(cyclopropanesulfonamido)-1-(2,2-difluoroethyl)-1H-indazol-7-yl)-7-morpholino-4-oxo-3,4-dihydroquinazolin-2-yl)-2-(3,5-difluorophenyl)ethyl)-2-(5-cyclopropyl-3-(difluoromethyl)-1H-pyrazol-1-yl)acetamide] | 0.361 nM | > 1000 nM
11 | Cn1nc(NS(C)(=O)=O)c2c(Cl)ccc(-n3c([C@H](Cc4cc(F)cc(F)c4)NC(=O)Cn4nc(C(F)F)c5c4C(F)(F)[C@@H]4C[C@H]54)nc4cc(NCC(F)F)ccc4c3=O)c21 (atropisomer, axis not shown; (P)) [Example 41, N—((S)-1-((3P)-3-(4-chloro-1-methyl-3-(methylsulfonamido)-1H-indazol-7-yl)-7-((2,2-difluoroethyl)amino)-4-oxo-3,4-dihydroquinazolin-2-yl)-2-(3,5-difluorophenyl)ethyl)-2-((3bS,4aR)-3-(difluoromethyl)-5,5-difluoro-3b,4,4a,5-tetrahydro-1H-cyclopropa[3,4]cyclopenta[1,2-c]pyrazol-1-yl)acetamide] | 0.174 nM | > 1000 nM
12 | Cn1nc(NS(C)(=O)=O)c2c(Cl)ccc(-n3c([C@H](Cc4cc(F)cc(F)c4)NC(=O)Cn4nc(C(F)F)c5c4C(F)(F)[C@@H]4C[C@H]54)nc4cc(NCC(F)(F)F)ccc4c3=O)c21 (atropisomer, axis not shown; (P)) [Example 42, N—((S)-1-((3P)-3-(4-chloro-1-methyl-3-(methylsulfonamido)-1H-indazol-7-yl)-4-oxo-7-((2,2,2-trifluoroethyl)amino)-3,4-dihydroquinazolin-2-yl)-2-(3,5-difluorophenyl)ethyl)-2-((3bS,4aR)-3-(difluoromethyl)-5,5-difluoro-3b,4,4a,5-tetrahydro-1H-cyclopropa[3,4]cyclopenta[1,2-c]pyrazol-1-yl)acetamide] | 0.11 nM | > 1000 nM
